Measured values taken from paper PMC10303920, “Competition between skin antimicrobial peptides and commensal bacteria in type 2 inflammation enables survival of S. aureus” (Cell reports, 2023).

Assays:
[1] = system: CoNS-AM− strains of S. epidermidis or S. hominis; experiment: Bacterial survival on pigskin, non-antibiotic-producing CoNS; type: cell-based; details: LL-37 2.5 nmol on 2.5 × 2.5 cm pigskin sheet, 1 × 10^6 CFU, 30°C, 24 h; Figure 4F
Procedure: Fresh-frozen pigskin sheets were obtained from Loretta Tomlin Animal Technologies (Livermore, CA) and sanitized by surgical brush with 3% chloroxylenol. The skin sheet was cut into 2.5 cm × 2.5 cm and rinsed with sterile PBS more than 20 times to remove chloroxylenol residue. Synthetic LL-37 (2.5nanomol/50μL H2O) or equal volume of vehicle was applied to the surface of sanitized pig skin. Antibiotic-producing or non-antibiotic-producing strain of CoNS (1 × 10^6 CFU/10μL PBS) was applied on the pigskin. Pigskin sheet was placed on a 6-well plate and incubated at 30°C for 24 h. The entire skin sheet was rubbed 50 times with nylon foam swab (Puritan) pre-moisturized with PBS to collect bacteria on the skin surface. Swab sample was suspended in 1mL of 85% TSB/15% glycerol and frozen until analysis.

[2] = system: ShA9-ΔLanti; experiment: Synergistic antimicrobial assay between LL-37 and ShA9 lantibiotics; type: cell-based, Staphylococcus hominis; details: sub-antimicrobial doses of LL-37 (4 or 8 μM) plus conditioned medium from ShA9-WT, 90% RPMI/10% TSB, 30°C, 24 h; Figure 5A
Procedure: ShA9 or S. epidermidis A11 strains, lantibiotic producing CoNS, were cultured in TSB at 37°C with shake overnight. Bacteria were removed by centrifugation, followed by sterile filtration with 0.22μm membrane. Lantibiotics from each strain was precipitated by adding ammonium sulfate into the sterile conditioned media at 70% saturation. The ammonium sulfate precipitation of conditioned media were dissolved in 90% RPMI1640 supplemented by 10% TSB. ShA9-DLanti mutant or S. hominis C6 strain were cultured in TSB at 37°C overnight and washed with PBS. These strain was incubated with conditioned media precipitation (0–100%) along with 0, 4, 8mM of LL-37 in 90% RPMI/10% TSB at 30°C for 24 h. Concentration of conditioned media precipitation added was calculated based on the original volume of sterile conditioned media. Bacterial survival was evaluated by measuring OD600 or counting CFUs.

[3] = system: ShA9-ΔLanti; experiment: Transmission electron microscopy of ShA9-ΔLanti; type: cell-based, Staphylococcus hominis; details: 30°C, 30 min, Figure 5C
Procedure: To observe the effect of synergistic antimicrobial action between host AMP and lantibiotic on ShA9, ShA9-DLanti mutant were incubated in 90% RPMI media/10% TSB containing LL-37 ([…]), ammonium sulfate precipitation fraction of conditioned media from ShA9-WT (25% calculated from the original volume of media), or combination at 30°C for 30 min. Bacterial cells were washed with PBS twice and immediately fixed by re-suspending in modified Karnovsky’s fixative for 4 h, followed by 1% osmium tetroxide in 0.1 M cacodylate buffer for 1 h on ice. The cells were stained with 2% uranyl acetate for 1 h on ice, dehydrated in a graded series of ethanol (50–100%), washed with acetone, and then embedded with Durcupan. Sections (60 nm) were post-stained with 2% uranyl acetate for 5 min and Sato’s lead stain for 1 min. Grids were viewed using a JEOL JEM-1400Plus (JEOL, Peabody, MA) transmission electron microscope and photographed using a Gatan OneView 4 K digital camera (Gatan, Pleasanton, CA).

[4] = system: mixture of S. aureus (ATCC35556), ShA9-WT and ShA9-ΔLanti; experiment: Staphylococcus competition assay in vitro; type: cell-based, Staphylococcus aureus, Staphylococcus hominis; details: RPMI1640, 1 × 10^6 CFU/mL each strain, 30°C, 3 h, Figure 6B
Procedure: Three Staphylococcus strains, S. aureus (ATCC35556), ShA9-WT (antibiotic-producing strain) or ShA9-Dlanti mutant (non-antimicrobial strain) were individually cultured in TSB. Bacterial cells were washed with PBS and re-suspended in fresh PBS. For in vitro competition assay, three bacterial strains were suspended in RPMI1640 media (1mL) at 1 × 10^6 CFU/mL each and LL-37 was added at 0, 1, 2, 4, 8, 16μM. Bacterial mixture were incubated at 30°C for 3 h without shaking. […] Proportion of three Staphylococcus strains was determined by CFU counting on mannitol salt agar with egg yolk for total Staphylococcus CFU and on Barid-Parker agar for S. aureus. Relative proportion of Staphylococcus species was determined as following; S. aureus: CFUs on Baird-Parker CFU/CFUs on mannitol salt agar, CoNS: CFUs on mannitol salt agar – CFUs on Baird-Parker. Ratio of ShA9-WT to ShA9-DLanti mutant were measured by analyzing 12 colonies of pink color CoNS colonies without halo on mannitol salt agar from each sample with colony PCR using lantibiotic-specific primers (key resources table).
Survival of S. aureus and CoNS were measured on Baird-Parker agar for S. aureus or mannitol salt agar with egg yolk for total Staphylococcus species using easySpiral automatic diluter plater with exponential mode or circle mode and automatic colony counter (Interscience Inc., France). […]

LL-37
Survival of CoNS strains without antibiotic activity on pigskin [1]: did not inhibit | Growth of ShA9-ΔLanti with the combination of LL-37 and ShA9 CM containing lantibiotics [2]: synergistically inhibited growth | Electron microscopy findings in ShA9-ΔLanti after exposure to the single agent alone ([3]; LL-37 or ShA9-CM alone): did not show these changes | Electron microscopy findings in ShA9-ΔLanti after the combination of lantibiotic-containing CM and LL-37 ([3]; combination): promote membrane damage | Shift in relative proportion of the bacterial mixture at lower LL-37 concentrations ([4]; LL-37 1–4 μM): favor growth of S. aureus and ShA9-ΔLanti over the antibiotic-producing ShA9-WT | Effect on the bacterial mixture at higher LL-37 concentrations ([4]; LL-37 8–16 μM): inhibited both the antibiotic-producing CoNS and S. aureus
